One series deals with S180 cells. Briefly: Mouse transplanted S180 subcutaneous tumor inhibition. Type of series: in vivo, Mice. Conditions: CTX 20 mg·kg^−1 intraperitoneal. On the procedure:
(§1) Mice, 18-22 g, males and females were equally divided, provided by Jilin University Laboratory Animal Center; Mice Ehrlich ascites cells strain, provided by our laboratory S180; Cyclophosphamide (CTX), offered by Jiangsu Hengrui Medicine Co., Ltd., lot number: 06101921. S180 ascites tumors and solid tumors in experiment group were divided into normal control group, negative control group, positive control group, rLZ-8 low-dose treatment group (0.25 mg·kg^−1), rLZ-8 medium-dose treatment group (0.5 mg·kg^−1), rLZ-8 high-dose treatment group (1 mg·kg^−1). For each group 10 mice.
(§2) Select well-growing S180 cells, dilute appropriately with sterile saline into a tumor cell suspension, cell counts for 10^7·L^−1, under the right armpit of each mouse inoculated subcutaneously 0.2 ml (except for the normal control group). Treatment after 24 h of vaccination. Normal control group and negative control group were given saline 0.2 ml·each^−l·d^−1, intraperitoneal injection; positive control group were given cyclophosphamide 20 mg·kg^−1, intraperitoneal injection. rLZ-8 treatment groups were given doses of tail venous injection respectively, 0.2 ml·each^−1·d^−1, in 10 consecutive days. Draw blood from orbital venous plexus 10 days before and after medication respectively, sent to Jilin University No. 1 Hospital clinical laboratory to test and analyze the number of WBC. Kill all mice the next day of drug withdrawal at cervical dislocation, dissect anatomically and take out the tumors, weigh tumors, calculate the inhibition rate using the following equation:
Inhibition rate (%)=(average tumore weight of the control group−average tumore weight of the experiment group)/average tumor weight of the control group×100%

Series [1] has as its system WBC. Kind of series: Number of leukocytes in S180 tumor-bearing mice. The conditions noted are these: CTX 20 mg·kg^−1. On the procedure:
as §1
as §2, with “Kill all mice the next day of drug withdrawal at cervical dislocation, dissect anatomically and take out the tumors, weigh tumors, calculate the inhibition rate using the following equation:” left out

The subject of series [2] is Mouse hepatoma cell strain H22. Briefly: H22 subcutaneous tumor inhibition experiment. Type of series: in vivo, Mice. Conditions: CTX 20 mg·kg^−1 intraperitoneal. The procedure:
(§3) Mice, weight 18-22g, males and females were divided equally, from Jilin University Laboratory Animal Center. Mouse hepatoma cell strain H22, offered by our laboratory. Cyclophosphamide (CTX), offered by Jiangsu Hengrui Medicine Co., Ltd., lot number: 06101921.
(§4) H22 hepatoma cells experiment group were divided into normal control group, negative control group, positive control group, rLZ-8 low-dose treatment group (0.25 mg·kg^−1), rLZ-8 medium-dose treatment group (0.5 mg·kg^−1), rLZ-8 high-dose treatment group (1 mg·kg^−1). For each group 10 mice.
H22 subcutaneous tumor tumor inhibition experiment methods: Select well-growing 1-122 cells, dilute appropriately with sterile saline into a tumor cell suspension, cell counts for 10^7·L^−1, under the right armpit of each mouse inoculated subcutaneously 0.2 ml (except for the normal control group). Treatment after 24 h of vaccination. Normal control group and negative control group were given saline 0.2 ml·each^−1·d^−1, intraperitoneal injection; positive control group were given cyclophosphamide 20 mg·kg^−1, 0.2 ml·each^−1·d^−1, intraperitoneal injection. rLZ-8 treatment groups were given doses of tail venous injection respectively, 0.2 ml·each^−1·d^−1, in 10 consecutive days. Draw blood from orbital venous plexus 10 days before and after medication respectively, sent to Jilin University No. 1 Hospital clinical laboratory to test and analyze the number of WBC. Kill all the mice the next day of drug withdrawal at cervical dislocation, dissected anatomically and took out the tumors, weigh tumors, calculated the inhibition rate using the following equation:
Inhibition rate (%)=(average tumore weight of the control group−average tumor weight of the experiment group)/average tumor weight of the control group×100%

In series [3] the test system is WBC. Kind of series: WBC numbers in H22 tumor-bearing mice. The conditions noted are these: CTX 20 mg·kg^−1. On the procedure: as §3, §4
H22 subcutaneous tumor tumor inhibition experiment methods: Select well-growing 1-122 cells, dilute appropriately with sterile saline into a tumor cell suspension, cell counts for 10^7·L^−1, under the right armpit of each mouse inoculated subcutaneously 0.2 ml (except for the normal control group). Treatment after 24 h of vaccination. […] Kill all the mice the next day of drug withdrawal at cervical dislocation, dissected anatomically and took out the tumors, weigh tumors, calculated the inhibition rate using the following equation: […]

A further series deals with rat myocardial tissues. Briefly: FITC-rLZ-8 labeling of rat myocardial tissues. It is filed as binding. The conditions noted are these: FITC-rLZ-8 100 ng·ml^−1, 1 h, 37° C. The procedure:
Leica CM1850 frozen slicer; wistar rat; fluorescence microscope 80i (Nikon); isotonic PBS buffer (pH7.2); fetal bovine serum (FBS, Gibco); FITC-rLZ-8 is prepared by our laboratory. Cut the rats at neck and kill them, and strip the hearts, put them to frozen microtome till the temperature dropped to −20° C. for slicing, hatching for 1 h at 37° C. when the myocaridial and PBS preparation of FITC-rLZ-8 solution (100 ng·ml^−1), observing under fluorescence microscope to observe, and establish a blank control group.

For another series, the system named is rabbit chondrocytes. Kind of series: FITC-rLZ-8 labeling of primary rabbit chondrocytes. Type of series: binding. The conditions noted are these: FITC-rLZ-8 0.25 μg·ml^−1, 1 h, 37° C. On the procedure: Japanese white rabbits (male, 2.5 kg) 4; surgical instruments; 025% trypsogen+0.02% EDTA; 0.2% collagenasell; D-Hanks; IMDM medium ([…], vitamin C, double-antibody); 0.025 mg·ml^−1 Poly-lysine solution; sterile water for injection (WFI).
Fix the experiment animals and execute them with air embolism, skinned abdominal in the middle and exposed the limbs, cutting the muscle fascia with scissors, disconnected the backbone from os longum, remove carefully the entire knee, hip and shoulder bones, with a rough pruning, immersed into D-Hanks. Moved the beaker with tissues into the super-clean units, move the tissues after pruning and cleansing into the 2nd sterile D-Hanks cup; assemble the knife, cutting a thin layer of cartilage off, use curved forceps move into the 6 cm culture incubator, washing with D-Hanks three times, discard majority of D-Hanks, cut the cartilage into 1 mm slices with ophthalmic scissors, discard majority of D-Hanks, spoon removing the broken bone vials into a 10 cm^2 culture flask, mix with trypsogen EDTA for digestion, 37° C., 30 min; replace the trypsogen for collagenase, put it into the hatching incubator of 37° C., taking out and shaking 5 min every 1 h, with 4-4.5 h, finish digestion. Prepare it to the cell suspension solution and mix 3 ml IMDM containing FBS 15%, 5×10^4·ml^−1 vaccinated into the culture flask. […]

The test system of a further series is HL-60 cells. Kind of series: FITC-rLZ-8 labeling of HL-60 cells. Type of series: binding. On the procedure: Fluorescence microscope 80i (Nikon), IMDM cell culture medium (Hyclone), fetal bovine serum (FBS, Gibco), FITC-rLZ-8 and isotonic PBS buffer (pH7.2) Prepared by our laboratory.
Vaccinated the HL-60 by 2×106 inoculation on 24-hole plate, each hole 0.5 ml, with IMDM (2% FBS) culture medium prepared FITC-rLZ-8 for 100 ng·ml^−1, each hole 0.5 ml hatching (37° C.), establish a control group, experiment group 1 h and experiment group 6 h, draw the cells respectively from 1 h and 6 h, mixing into 1.5 ml EP tube, 1000 r·min^−1 centrifuge, clear the supernatant, wash with PBS 3 times, re-suspend after washing.

As for `O=P1(N(CCCl)CCCl)NCCCO1` (stereo not shown) [CTX, Cyclophosphamide, reference compound], the “Inhibition rate (%)” value is recorded as 65.3% with S180 cells and 62.5% in series [2]. Besides, the “Tumor weight” value is given as 0.35 ± 0.02 g in the series with S180 cells and 0.45 ± 0.02 g in series [2]. The “Number of leukocytes, 10th day of medication” value in the series with WBC [1] is on record as 4.41 ± 0.25. In addition, the “WBC numbers, 10th day of medication” value in the series with WBC [3] came to 4.49 ± 0.21.

B1: FITC-rLZ-8: rLZ-8 labelled with Fluorescein-5-Isothiocyanate (FITC) (conjugate, UniProt P14945 2-111, looked up)
Immunomodulatory protein Ling …: SDTALIFRLAWDVKKLSFDYTPNWGRGNPNNFIDTVTFPKVLTDKAYTYRVAVSGRNLGVKPSYAVESDGSQKVNFLEYNSGYGIADTNTIQVFVVDPDTNNDFIIAQWN
modifications: FITC label
On to B1, for which the “fluorescence of myocardial tissues” value with rat myocardial tissues is “without visible fluorescence”. In addition, the “fluorescence of rabbit chondrocytes” value in the series with rabbit chondrocytes was “without green fluorescence”. Also, the “cell appearance of HL-60” value in the series with HL-60 cells (FITC-rLZ-8 100 ng·ml^−1, group 6 h) was “agglutination of cells”. Also, in the series on HL-60 cells (FITC-rLZ-8 100 ng·ml^−1, incubation of 1 h and 6 h), the “fluorescence of HL-60 cells” value was “strong green fluorescence”.
